Measurements as given in US20110195420A1, “ESTROGEN AND ANTI-ESTROGEN MARKER GENES” (Merck Patent Gesellschaft, priority 2009, published 2011).
Entries after “also recorded” stand apart in the source; their conditions may differ. Where two headings read alike, the source gives them in different places.

Tests used:
[1] = tested on: Ishikawa plus cells; experiment: Illumina global gene expression profiling in Ishikawa plus cells after 24 h EAC treatment (ANOVA, correlation, K-Means clustering); assay type: cell-based, human
Experimental: Cells were routinely maintained in DMEM/F12 with L-Glutamine and 15 mM Hepes supplemented with 10% (v/v) FBS, 1% (v/v) penicillin (10 kU/ml)-streptomycin (10 mg/ml) solution, 0.1% (v/v) Gentamicin (50 mg/ml) and 1 mM sodium pyruvate at 37° C. and 5% CO2 in culture flasks. 5×10^5 cells were seeded onto 6-well plates in phenol-red free DMEM/F12 with L-Glutamine and 15 mM Hepes containing 10% (v/v) dextran-coated charcoal treated FBS, sodium pyruvate and antibiotics.
All experiments were performed three times with cells of passages 3-25.
After a 24 h treatment period cells were rinsed with PBS (Gibco Invitrogen, Karlsruhe, Germany), harvested and total RNA was extracted using the RNeasy Mini Kit (QIAGEN, Hilden, Germany) as described by the manufacturer, including the QIAshredder spin column procedure and on-column RNase-free DNase digestion. RNA was eluted with 40 μl of RNA-Storage solution (Ambion, Darmstadt, Germany). RNA quality control and quantification was determined using a NanoDrop® spectrophotometer (Kisker, Steinfurt, Germany) and 2100 Agilent Bio-Analyzer (Agilent Technologies, Waldbronn, Germany). Only RNA with a quality ratio A260/A280 between 1.9 and 2.1 and no evidence of peak degradation (18s/28s) was used.
Gene expression analysis was executed using Illumina Sentrix® HumanRef-8 V2 BeadChip Arrays (Illumina Inc., San Diego, Calif., USA) allowing the analysis of ˜23,000 transcripts. […] Instead of column cleanup, the bead-based Agencourt® RNAcIean™ system (Beckman Coulter, Krefeld, Germany) was applied to purify cDNA and cRNA. cRNA quantity was measured spectrophotometrically (NanoDrop®) and the 2100 Agilent Bio-Analyzer was used for quality assessment.
Seven hundred fifty nanograms of amplified biotinylated cRNA were hybridized onto the Illumina Sentrix® BeadChip in a Hybridization Cartridge under humidified conditions for 20 h at 58° C. (Hybridization oven, Illumina Inc., San Diego, Calif., USA). The chips were then washed, stained for 10 minutes with 1 μg/ml streptavidin-conjugated Cy3 (Amersham Biosciences, Buckinghamshire, UK) and finally dried by centrifugation according to the protocol provided.
Data were uploaded into Genedata's Expressionist® Analyst software (Genedata AG, Basel, Switzerland) for data normalization and statistical analysis. Data were normalized using Lowess (Locally Weighted Linear Regression) to offset non-biological differences (systematic variation) between the samples and arrays. After normalization fold-regulations for each individual compound treatment were calculated. The global gene set was reduced by filtering any signal intensity<200 (background level) to reduce error rates of multiple testing during further analysis.
Thus, only genes with a p-value and BH-Q-value less than 0.01 were accepted as significant.
For selection of characteristic estrogenicity marker genes, ANOVA was applied to the tested EACs against the vehicle controls. Only genes having a p-value and BH-Q-value less than 0.01 were accepted as significant.

[2] = biological target: T1, ERα (Homo sapiens, UniProt P03372); details: consensus ERE reporter; used as low dose level; read-out: compound concentration causing a half maximal activation of the reporter gene (EC50); cited from earlier work
T1 sequence (P03372 1-595): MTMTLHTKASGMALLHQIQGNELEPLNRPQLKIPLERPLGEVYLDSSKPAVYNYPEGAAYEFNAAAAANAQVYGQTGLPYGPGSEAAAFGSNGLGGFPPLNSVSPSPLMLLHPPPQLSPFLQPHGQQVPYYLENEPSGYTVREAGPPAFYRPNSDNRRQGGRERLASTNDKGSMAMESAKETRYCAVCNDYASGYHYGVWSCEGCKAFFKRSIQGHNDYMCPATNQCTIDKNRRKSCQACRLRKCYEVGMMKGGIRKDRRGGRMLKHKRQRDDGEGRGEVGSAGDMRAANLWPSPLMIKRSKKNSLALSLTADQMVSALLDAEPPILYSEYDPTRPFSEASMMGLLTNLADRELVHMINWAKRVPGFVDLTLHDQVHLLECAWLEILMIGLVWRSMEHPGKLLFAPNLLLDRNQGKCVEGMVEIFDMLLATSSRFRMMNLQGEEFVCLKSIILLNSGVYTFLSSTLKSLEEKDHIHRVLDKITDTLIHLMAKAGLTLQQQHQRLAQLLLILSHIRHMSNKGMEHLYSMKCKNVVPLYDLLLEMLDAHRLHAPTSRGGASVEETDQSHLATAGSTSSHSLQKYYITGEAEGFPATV

[3] = K-Means clustering, p-value/BH-Q-value<0.01, 24 h
[4] = Pearson correlation on significantly regulated genes, 24 h, dose not specified
[5] = clusters 3 and 4, same direction as ICI, 24 h
[6] = Pearson correlation, 24 h, high dose
[7] = Pearson correlation, 24 h, low dose

Q: Which “regulation of the 87 marker genes” value ([1]; ICI 100 nM alone and ICI/compound combination, 24 h) does the source give for `C[C@]12CC[C@@H]3c4ccc(O)cc4C[C@@H](CCCCCCCCC[S+]([O-])CCCC(F)(F)C(F)(F)F)[C@H]3[C@@H]1CC[C@@H]2O` (stereo partly drawn) [ICI, ICI 182,780] here?
A: Its value is “Most genes showed a weaker regulation score or were diametrically regulated”.

Q: What does the source list for `CC/C(=C(/CC)c1ccc(O)cc1)c1ccc(O)cc1` [DES, Diethylstilbestrol]?
A: kind of regulated genes identified by K-Means clustering ([1]; 24 h, dose not specified): only genes with ER-dependent expression profiles; also recorded: Only genes with ER-dependent regulation profiles; number of down-regulated genes with ER-dependent expression profiles [1, 3]: 62; number of up-regulated genes with ER-dependent expression profiles [1, 3]: 193; correlation of gene expression to ICI [1, 4]: negatively correlated

Q: Which “share of ER-dependent regulated genes (clusters 1 and 2) also regulated in the same direction after DES treatment” value (“share of ER-dependent regulated genes” for short) ([1]; 24 h) does the source give for `CC(C)(c1ccc(O)cc1)c1ccc(O)cc1` [BPA, Bisphenol A] here?
A: Its value is “Eighty”.

Q: What about the “correlation of gene expression compared with DES” value (“correlation … compared with DES” for short) [1, 4] of the same compound?
A: Its value is “low positive correlation”.

Q: And the “correlation of gene expression to ICI” value [1, 4]?
A: The value was “high positive correlation; also recorded: high correlations; also recorded: good correlation”.

Q: What about the “anti-estrogen-like gene regulation, share of significantly regulated genes” value [1, 5] of the same compound?
A: The value was 86%.

Q: What does the source list for `C[C@H]1CCCC(=O)CCC/C=C/c2cc(O)cc(O)c2C(=O)O1` [ZEA, Zearalenone]?
A: doses at which anti-estrogenic gene regulation was displayed ([1]; 24 h): only at low doses; share of ER-dependent regulated genes (clusters 1 and 2) also regulated in the same direction after DES treatment ([1]; 24 h): Approximately 66%; correlation of gene expression to ICI [1, 4]: good correlation; correlation of gene expression compared with DES [1, 6]: medium to high correlations; similarity of gene expression with ICI [1, 6]: little similarity; correlation of gene expression compared with DES [1, 7]: low positive correlation; correlation of gene expression to ICI [1, 7]: high positive correlation; also recorded: high correlations; kind of regulated genes identified by K-Means clustering ([1]; high dose, 24 h): only ER-dependent regulated genes were identified; also recorded: Only genes with ER-dependent regulation profiles; share of low dose deregulated genes similarly regulated by ICI (clusters 5 and 6) ([1]; low dose, 24 h): ~91%; EC50 [2]: 0.0025 µM

Q: For `O=c1c(-c2ccc(O)cc2)coc2cc(O)cc(O)c12` [GEN, Genistein], which “doses at which anti-estrogenic gene regulation was displayed” value ([1]; 24 h) is on record?
A: The value was “only at low doses”.

Q: What about the “share of ER-dependent regulated genes” value ([1]; 24 h) of the same compound?
A: Its value is “Approximately 66%”.

Q: What about the “correlation of gene expression to ICI” value [1, 4] of the same compound?
A: Its value is “good correlation”.

Q: And the “correlation … compared with DES” value [1, 6]?
A: The value was “medium to high correlations”.

Q: What about the “similarity of gene expression with ICI” value [1, 6] of the same compound?
A: The value was “little similarity”.

Q: And the “correlation … compared with DES” value [1, 7]?
A: The value was “low positive correlation”.

Q: What about the “correlation of gene expression to ICI” value [1, 7] of the same compound?
A: The value was “high positive correlation; also recorded: high correlations”.

Q: What about the “kind of regulated genes identified by K-Means clustering” value ([1]; high dose, 24 h) of the same compound?
A: The value was “only ER-dependent regulated genes were identified; also recorded: Only genes with ER-dependent regulation profiles”.

Q: What about the “share of low dose deregulated genes similarly regulated by ICI (clusters 5 and 6)” value ([1]; low dose, 24 h) of the same compound?
A: The value was “approximately 86%”.

Q: Which “anti-estrogen-like gene regulation, share of significantly regulated genes” value [1] does the source give for `Clc1ccc(C(c2ccccc2Cl)C(Cl)(Cl)Cl)cc1` (stereo not drawn) [DDT, o,p′-Dichlordiphenyltrichlorethane] here?
A: The value was 85%.

Q: What about the “correlation … compared with DES” value [1] of the same compound?
A: The value was “low positive correlation”.

Q: And the “correlation of gene expression to ICI” value [1]?
A: Its value is “high positive correlation; also recorded: high correlations; also recorded: good correlation”.

Q: What about the “share of ER-dependent regulated genes” value [1] of the same compound?
A: Its value is 72%.

Q: For `Oc1ccc(C=Cc2cc(O)cc(O)c2)cc1` [RESV, Resveratrol], which “estrogen-like gene expression, share of significantly regulated genes” value ([1]; 24 h) is on record?
A: Its value is 48%.

Q: And the “portion of the putative estrogenic marker genes regulated unidirectional to ICI” value ([1]; 24 h)?
A: The value was “one third”.

Q: And the “share of ER-dependent regulated genes” value ([1]; 24 h)?
A: Its value is 6%.

Q: And the “correlation … compared with DES” value [1, 4]?
A: Its value is “no correlation”.

Q: What about the “correlation of gene expression to ICI” value [1, 4] of the same compound?
A: The value was “high positive correlation”.

Q: What about the “anti-estrogen-like gene regulation, share of significantly regulated genes” value [1, 5] of the same compound?
A: The value was 52%.

Q: What about the EC50 [2] of the same compound?
A: The EC50 was 7.5 µM.
